According to ChEMBL document CHEMBL4831531, “Mangostanin Derivatives as Novel and Orally Active Phosphodiesterase 4 Inhibitors for the Treatment of Idiopathic Pulmonary Fibrosis with Improved Safety” (J Med Chem, 2021):
The source made the active and inactive calls. The rule behind the calls is not given here.

Test system: Rattus norvegicus
Assay: Anti-idiopathic pulmonary fibrotic activity in bleomycin-induced Sprague-Dawley rat model assessed as prevention of structural damage of lungs at 150 mg/kg, po treated for 28 consecutive days by Hematoxylin and eosin staining based assay relative to control
Assay type: functional, organism-based
Conditions: not given

| Structure (SMILES) | Activity |
| --- | --- |
| Cc1ccc(=O)n(-c2ccccc2)c1 [PIRFENIDONE] | Active |

Test system: Rattus norvegicus
Assay: Anti-inflammatory activity in bleomycin-induced idiopathic pulmonary fibrotic activity Sprague-Dawley rat model assessed as decrease in NO production in lungs at 150 mg/kg, po treated for 28 consecutive days
Assay type: functional, organism-based
Conditions: not given

| Structure (SMILES) | Activity |
| --- | --- |
| Cc1ccc(=O)n(-c2ccccc2)c1 [PIRFENIDONE] | Active |

Test system: Rattus norvegicus
Assay: Anti-idiopathic pulmonary fibrotic activity in bleomycin-induced Sprague-Dawley rat model assessed as inhibition of collagen deposition around trachea and cell hyperplasia at 150 mg/kg, po treated for 28 consecutive days by Hematoxylin and eosin staining based assay relative to control
Assay type: functional
Conditions: not given

| Structure (SMILES) | inhibition in vivo at 150 mg/kg |
| --- | --- |
| Cc1ccc(=O)n(-c2ccccc2)c1 [PIRFENIDONE] | 100% |

Test system: Rattus norvegicus
Assay: Anti-idiopathic pulmonary fibrotic activity in bleomycin-induced Sprague-Dawley rat model assessed as decrease in fibronectin expression of lungs at 150 mg/kg, po treated for 28 consecutive days by Western blot analysis
Assay type: functional, organism-based
Conditions: not given

| Structure (SMILES) | Activity |
| --- | --- |
| Cc1ccc(=O)n(-c2ccccc2)c1 [PIRFENIDONE] | Active |

Target: 3',5'-cyclic-AMP phosphodiesterase 4D (Homo sapiens, UniProt Q08499)
Sequence (Q08499 whole entry): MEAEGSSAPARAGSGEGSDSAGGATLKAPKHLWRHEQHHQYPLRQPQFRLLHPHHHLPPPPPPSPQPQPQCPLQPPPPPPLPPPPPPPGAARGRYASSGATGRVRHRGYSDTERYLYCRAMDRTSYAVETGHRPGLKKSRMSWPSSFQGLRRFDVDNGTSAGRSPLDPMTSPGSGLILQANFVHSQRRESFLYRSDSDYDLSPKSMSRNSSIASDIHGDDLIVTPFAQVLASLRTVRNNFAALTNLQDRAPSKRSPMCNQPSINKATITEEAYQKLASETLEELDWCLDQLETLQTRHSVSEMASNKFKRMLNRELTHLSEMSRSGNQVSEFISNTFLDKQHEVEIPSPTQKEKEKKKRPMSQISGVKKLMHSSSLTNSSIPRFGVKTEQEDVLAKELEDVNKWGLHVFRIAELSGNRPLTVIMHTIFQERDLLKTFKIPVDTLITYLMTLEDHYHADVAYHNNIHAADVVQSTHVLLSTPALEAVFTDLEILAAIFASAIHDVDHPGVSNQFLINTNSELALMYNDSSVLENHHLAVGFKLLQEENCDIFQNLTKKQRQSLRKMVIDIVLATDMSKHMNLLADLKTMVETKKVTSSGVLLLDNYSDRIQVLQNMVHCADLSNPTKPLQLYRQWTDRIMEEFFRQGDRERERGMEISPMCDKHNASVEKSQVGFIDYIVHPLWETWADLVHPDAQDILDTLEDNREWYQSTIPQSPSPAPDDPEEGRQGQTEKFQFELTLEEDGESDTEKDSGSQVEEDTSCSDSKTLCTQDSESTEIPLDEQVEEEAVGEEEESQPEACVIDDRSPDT
Assay: Inhibition of PDE4D2 (86-413) (unknown origin) expressed in Escherichia coli BL21 assessed as using [3H]-cAMP as substrate measured for 15 mins by liquid scintillation counting analysis
Conditions: not given

| Structure (SMILES) | IC50 |
| --- | --- |
| COc1c(OCc2ccccc2)cc2oc3cc4c(c(OC/C=C/C(=O)O)c3c(=O)c2c1CC=C(C)C)C=CC(C)(C)O4 | 24 nM |
| CCOC(=O)/C=C/COc1c2c(cc3oc4cc(OCc5cccc(F)c5)c(OC)c(CC=C(C)C)c4c(=O)c13)OC(C)(C)C=C2 | 6.5 nM |
| COc1c(O)cc2oc3cc4c(c(OCCCCCC(=O)O)c3c(=O)c2c1CC=C(C)C)C=CC(C)(C)O4 | 25 nM |
| COc1c(OCc2ccc(S(C)(=O)=O)cc2)cc2oc3cc4c(c(OC/C=C/C(=O)O)c3c(=O)c2c1CC=C(C)C)C=CC(C)(C)O4 | 18 nM |
| COc1cc2oc3cc4c(c(OC/C=C/C(=O)O)c3c(=O)c2c(CC=C(C)C)c1OC)C=CC(C)(C)O4 | 30 nM |
| CCOc1cc2oc3cc4c(c(OC/C=C/C(=O)O)c3c(=O)c2c(CC=C(C)C)c1OC)C=CC(C)(C)O4 | 48 nM |
| COc1c(OCc2cccc(C)c2)cc2oc3cc4c(c(OC/C=C/C(=O)O)c3c(=O)c2c1CC=C(C)C)C=CC(C)(C)O4 | > 1000 nM |
| COc1c(OCCCCCCC(=O)O)cc2oc3cc4c(c(O)c3c(=O)c2c1CC=C(C)C)C=CC(C)(C)O4 | 19 nM |
| COc1c(O)cc2oc3cc4c(c(OCC(=O)O)c3c(=O)c2c1CC=C(C)C)C=CC(C)(C)O4 | 17 nM |
| COc1c(OCc2ccc(F)cc2)cc2oc3cc4c(c(OC/C=C\C(=O)O)c3c(=O)c2c1CC=C(C)C)C=CC(C)(C)O4 | 20 nM |
| COc1cccc(COc2cc3oc4cc5c(c(OC/C=C/C(=O)O)c4c(=O)c3c(CC=C(C)C)c2OC)C=CC(C)(C)O5)c1 | 16 nM |
| COc1c(O)cc2oc3cc4c(c(OCCCC(=O)O)c3c(=O)c2c1CC=C(C)C)C=CC(C)(C)O4 | > 1000 nM |
| CCOC(=O)/C=C/COc1c2c(cc3oc4cc(OCc5ccc(F)cc5)c(OC)c(CC=C(C)C)c4c(=O)c13)OC(C)(C)C=C2 | 24 nM |
| COc1c(O)cc2oc3cc4c(c(OCCCCCCC(=O)O)c3c(=O)c2c1CC=C(C)C)C=CC(C)(C)O4 | 300 nM |
| COc1c(O)cc2oc3cc4c(c(OCCCCC(=O)O)c3c(=O)c2c1CC=C(C)C)C=CC(C)(C)O4 | 24 nM |
| COc1c(OC(C)C)cc2oc3cc4c(c(OC/C=C/C(=O)O)c3c(=O)c2c1CC=C(C)C)C=CC(C)(C)O4 | 31 nM |
| COc1c(OCc2cccc(F)c2)cc2oc3cc4c(c(OC/C=C/C(=O)O)c3c(=O)c2c1CC=C(C)C)C=CC(C)(C)O4 | > 1000 nM |
| COc1c(OCc2ccc(F)cc2)cc2oc3cc4c(c(OCCCC(=O)O)c3c(=O)c2c1CC=C(C)C)C=CC(C)(C)O4 | 4.2 nM |
| COc1c(O)cc2oc3cc4c(c(OC/C=C/C(=O)O)c3c(=O)c2c1CC=C(C)C)C=CC(C)(C)O4 | 494 nM |

Test system: Rattus norvegicus
Assay: Anti-idiopathic pulmonary fibrotic activity in bleomycin-induced Sprague-Dawley rat model assessed as decrease in alpha-smooth muscle actin protein expression of lungs at 150 mg/kg, po treated for 28 consecutive days by Western blot analysis
Assay type: functional, organism-based
Conditions: not given

| Structure (SMILES) | Activity |
| --- | --- |
| Cc1ccc(=O)n(-c2ccccc2)c1 [PIRFENIDONE] | Active |

Test system: not listed separately
Assay: Toxicity in dog assessed as emesis at 1 mg/kg, po
Assay type: organism-based, Canis lupus familiaris
Conditions: in vivo

| Structure (SMILES) | Activity |
| --- | --- |
| COc1ccc(C2CNC(=O)C2)cc1OC1CCCC1 (stereo not given) [ROLIPRAM] | Toxic |
